Test results from PubChem BioAssay (NCI).
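How tested: cells in 96-well plates exposed to compound for 48 hours at five concentrations. GI50: concentration for 50% inhibition of growth. TGI denotes the concentration required for complete inhibition of growth.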

Legend:
Assay in all cases: DTP human tumour cell line panel, 48 h
[1] = system: A549 NSCLC
[2] = system: SNB-75 CNS
[3] = system: SR leukemia
[4] = system: SF-268 CNS
[5] = system: SW-620 colon
[6] = system: 786-0 renal
[7] = system: LOX IMVI melanoma
[8] = system: HL-60(TB) leukemia
[9] = system: HOP-92 NSCLC
[10] = system: A498 renal

SMILES	GI50 [1]	TGI [1]	GI50 [2]	TGI [2]	GI50 [3]	TGI [3]	GI50 [4]	TGI [4]	GI50 [5]	TGI [5]	GI50 [6]	TGI [6]	GI50 [7]	TGI [7]	GI50 [8]	TGI [8]	GI50 [9]	TGI [9]	GI50 [10]	TGI [10]
COc1cc2c(c(OC)c1O)C(=O)C(OC)C(c1ccc(O)c(O)c1)O2 (stereo not given)	1.31 µM	> 100 µM	0.0405 µM	> 79.3 µM	0.0689 µM	> 100 µM	1.5 µM	> 100 µM	0.234 µM	> 100 µM	1.05 µM	> 100 µM	0.352 µM	> 100 µM	0.072 µM	3.62 µM	0.697 µM	> 28.9 µM	0.228 µM	0.812 µM
O=C1C2=C(SCCS2)C(=O)c2ccccc21	–	3.83 µM	–	3.03 µM	–	5.33 µM	–	3.05 µM	–	3.68 µM	–	3.12 µM	–	2.27 µM	–	6.77 µM	–	3.05 µM	–	3.65 µM
CCCCCCCCSC1=CC(=O)c2nc3ccccc3c3ccnc1c23	83.2 µM	> 100 µM	> 100 µM	> 100 µM	22.7 µM	> 100 µM	24.7 µM	> 100 µM	> 100 µM	> 100 µM	> 100 µM	> 100 µM	> 100 µM	> 100 µM	16.3 µM	> 100 µM	80 µM	> 100 µM	> 100 µM	> 100 µM
CC(=O)N1[C@H](C(=O)O)CS[C@H]1c1ccncc1	–	> 100 µM	–	> 100 µM	–	> 100 µM	–	> 100 µM	–	> 100 µM	–	> 100 µM	–	> 100 µM	–	> 100 µM	–	> 100 µM	–	> 100 µM
O=C(O)c1cc(C(=O)O)cc(N2C(=O)c3ccccc3C2=O)c1	–	> 100 µM	–	> 100 µM	–	> 100 µM	–	> 100 µM	–	> 100 µM	–	> 100 µM	–	> 100 µM	–	> 100 µM	–	> 100 µM	–	> 100 µM
COc1cc2nc(C)nc(N[C@H](C)c3cc(N)cc(C(F)(F)F)c3)c2cc1O[C@H]1CCOC1	14.8 µM	32.4 µM	10.4 µM	23.3 µM	2.25 µM	29.2 µM	12.5 µM	31.6 µM	14.6 µM	31.3 µM	9.82 µM	23.1 µM	12.2 µM	28.1 µM	14 µM	39.2 µM	0.0623 µM	7.31 µM	0.109 µM	7.84 µM
COc1cc(/C=C/c2cc(/C=C/c3ccc(O)c(OC)c3)n(C(=O)Nc3ccc(F)cc3)n2)ccc1O	2.44 µM	18.3 µM	0.551 µM	9.48 µM	0.278 µM	–	0.602 µM	10 µM	0.504 µM	10.6 µM	1.08 µM	6.8 µM	0.476 µM	4.26 µM	0.364 µM	1.93 µM	2.12 µM	8.07 µM	2.42 µM	6.46 µM
N#CC(C#N)=c1ccc(=C2NCC3CCCN23)cc1 (stereo not given)	–	> 100 µM	–	> 100 µM	–	> 100 µM	–	> 100 µM	–	> 100 µM	–	> 100 µM	–	> 100 µM	–	> 100 µM	–	> 100 µM	–	> 100 µM
O=C(N/C(=C\c1cc(Cl)ccc1Cl)c1nc2[nH]c(=S)[nH]c(=O)c2[nH]1)c1ccccc1	–	> 100 µM	–	> 100 µM	–	> 100 µM	–	> 100 µM	–	36.5 µM	–	32.2 µM	–	91.6 µM	–	36.3 µM	–	> 75.1 µM	–	> 100 µM
Nc1cc2nc3ccccc3sc-2cc1=O	2.06 µM	4.82 µM	2.59 µM	7.71 µM	4.27 µM	> 100 µM	2.53 µM	8.67 µM	2.95 µM	10.4 µM	4.21 µM	14.5 µM	1.48 µM	3.74 µM	2.07 µM	5.78 µM	2.77 µM	9.59 µM	2.32 µM	8.71 µM
Cc1ccc(-c2nnc(-c3ccc4ccccc4c3)o2)cc1	–	> 100 µM	–	82.7 µM	–	> 68.4 µM	–	> 100 µM	–	> 100 µM	–	> 100 µM	–	> 100 µM	–	> 21.9 µM	–	> 100 µM	–	> 100 µM
O=C1c2ccccc2C(=O)c2sc(Nc3cccc(Cl)c3)nc21	–	4.6 µM	–	3.67 µM	–	5.47 µM	–	4.69 µM	–	2.26 µM	–	3.74 µM	–	2.28 µM	–	0.444 µM	1.82 µM	9.1 µM	–	12.6 µM
CCOC(=O)Nc1nc2ccc(OCC)cc2s1	7.2 µM	> 100 µM	22.7 µM	> 100 µM	1.12 µM	> 100 µM	84.6 µM	> 100 µM	4.25 µM	> 100 µM	> 100 µM	> 100 µM	41.7 µM	> 100 µM	7.56 µM	> 100 µM	> 62.7 µM	> 100 µM	> 100 µM	> 100 µM
C/C(CCn1[nH]c(=O)ccc1=O)=N\O	–	> 100 µM	–	> 100 µM	–	> 100 µM	–	> 100 µM	–	> 100 µM	–	> 100 µM	–	> 100 µM	–	> 100 µM	–	> 100 µM	–	> 100 µM
